Reference: patent US7468359B2, “Compositions comprising oxophosphonate-based metalloproteinase inhibitors” (Yissum Research Develpment Company of the Hebrew University …, priority 1999, dated 2008)
Like-named read-outs stand apart in the source and are kept apart here.

Tests used:
[1] = system: cancer cells; assay: Matrigel chemoinvasion assay in Boyden chambers; format: cell-based; conditions: for inhibition at 50 µM: read-out: % Inhibition of Chemoinvasion 50 uM
[2] = system: murine melanoma; assay: Metastasis formation in the murine melanoma model; format: in vivo, mice; conditions: 50 mg/kg daily injections for 21 d, lung tumors counted, vs untreated animals
[3] = target: T1, MMP2 (Homo sapiens, UniProt P08253); assay: Activity on pure MMP2 enzyme; format: biochemical
T1 sequence (P08253 110-660): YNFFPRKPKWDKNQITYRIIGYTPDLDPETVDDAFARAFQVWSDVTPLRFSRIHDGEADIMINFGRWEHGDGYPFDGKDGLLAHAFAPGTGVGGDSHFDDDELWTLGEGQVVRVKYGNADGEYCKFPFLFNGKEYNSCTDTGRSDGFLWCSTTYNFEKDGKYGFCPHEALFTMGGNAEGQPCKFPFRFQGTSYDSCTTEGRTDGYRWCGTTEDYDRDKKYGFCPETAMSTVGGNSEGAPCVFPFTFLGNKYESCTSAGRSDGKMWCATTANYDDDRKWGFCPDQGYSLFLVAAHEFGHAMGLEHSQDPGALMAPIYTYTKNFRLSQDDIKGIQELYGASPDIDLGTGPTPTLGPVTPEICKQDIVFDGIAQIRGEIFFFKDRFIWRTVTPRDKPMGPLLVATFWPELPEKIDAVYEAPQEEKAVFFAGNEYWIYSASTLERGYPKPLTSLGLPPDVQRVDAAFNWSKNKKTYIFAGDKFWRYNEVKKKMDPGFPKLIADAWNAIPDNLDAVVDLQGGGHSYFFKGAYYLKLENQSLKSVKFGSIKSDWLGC

[4] = system: Endothelial cells; assay: Endothelial cell tube formation (capillary formation); format: cell-based

O=C(NCCN1CCCC1)P(=O)(O)O [Example 9, N-(2-[1-pyrrolidino]ethyl)phosphonoformamide Betaine]
concentration at which active in the Boyden chamber chemoinvasion assay [1]: 100 µM

O=C(c1ccc(Cl)cc1)P(=O)([O-])[O-].[Na+].[Na+] [Compound 8, p-chlorobenzoylphosphonic acid sodium salt]
Activity [1]: +++ (key: ++++: active at submicromolar concen-tration; +++: active at 1-10 μM; ++: active at 50-100 μM; +: active at 100 μM; −: not active at 100 μM) | MMP inhibiting activity [1]: considerable MMP inhibiting activity

CN(C)CCNC(=O)P(=O)(O)O [Compound 26, N-(2-dimethylaminoethyl)phosphonoformamide Betaine]
% Inhibition of Metastasis Formation 50 mg/kg for 21 d [2]: 73% | Activity [1]: ++++ (key: ++++: active at submicromolar concen-tration; +++: active at 1-10 μM; ++: active at 50-100 μM; +: active at 100 μM; −: not active at 100 μM) | inhibition at 50 µM [1]: 66% | IC50 [3]: 25 nM | inhibition at 50 µM ([4]; Endothelial cell, read-out: % Inhibition of Capillary Formation 50 µM): 75%

O=C(NCCSCc1ccccc1)P(=O)(O)O [Example 17, N-(S-benzylmercaptoethyl)carbamoylphosphonic Acid]
% Inhibition of Chemoinvasion 50 uM ([1]; 50 uM): 61% | % Inhibition of Capillary Formation 50 UM [4]: 58%

O=C(c1ccccc1)P(=O)([O-])O.[Na+] [Compound 7]
Activity [1]: ++ (key: ++++: active at submicromolar concen-tration; +++: active at 1-10 μM; ++: active at 50-100 μM; +: active at 100 μM; −: not active at 100 μM)

CNC(=O)C(NC(=O)C(Cc1ccccc1)NC(=O)P(=O)(O)O)C(C)C (stereo not drawn) [Example 21, Phosphonoformyl-Phe-Val-CONHMe]
% Inhibition of Chemoinvasion 50 uM ([1]; 50 uM): 41%

CCOC([O-])[PH](=O)C(=O)N(C)O.[Na+] (stereo not shown) [Compound 1]
Activity [1]: ++ (key: ++++: active at submicromolar concen-tration; +++: active at 1-10 μM; ++: active at 50-100 μM; +: active at 100 μM; −: not active at 100 μM)

O=C(NCCN1CCOCC1)P(=O)(O)O [Example 7, N-(2-[4-morpholino]ethyl)phosphonoformamide Betaine]
concentration at which active in the Boyden chamber chemoinvasion assay [1]: 100 µM

CNC(=O)[C@H](Cc1ccc(OC)cc1)NC(=O)[C@H](CC(C)C)NC(=O)P(=O)(O)O [Example 20, Phosphonoformyl-Leu-Tyr(Me)-NHMe]
% Inhibition of Metastasis Formation 50 mg/kg for 21 d [2]: 75% | % Inhibition of Chemoinvasion 50 uM ([1]; 50 uM): 39% | % Inhibition of Capillary Formation 50 UM [4]: 38%

CNC(=O)[C@@H](NC(=O)[C@H](CC(C)C)NC(=O)P(=O)(O)O)C(C)C [Example 18, Phosphonoformyl-Leu-Val-NHMe]
% Inhibition of Chemoinvasion 50 uM ([1]; 50 uM): 38% | % Inhibition of Capillary Formation 50 UM [4]: 42%

O=C(NCCc1c[nH]cn1)P(=O)(O)O [Example 15, Phosphonoformylhistamine]
% Inhibition of Chemoinvasion 50 uM [1]: 15%

O=C(NCc1ccccc1)P(=O)([O-])O.[Na+] [Compound 16]
Activity [1]: ++ (key: ++++: active at submicromolar concen-tration; +++: active at 1-10 μM; ++: active at 50-100 μM; +: active at 100 μM; −: not active at 100 μM)

CCCCNC(=O)P(=O)([O-])O.[Na+] [Compound 23]
Activity [1]: + (key: ++++: active at submicromolar concen-tration; +++: active at 1-10 μM; ++: active at 50-100 μM; +: active at 100 μM; −: not active at 100 μM)

O=P([O-])([O-])Cc1ccc(Cl)cc1.[Na+].[Na+] [Compound 38, p-chlorobenzylphosphonic acid sodium salt, reference compound]
Activity [1]: − (key: ++++: active at submicromolar concen-tration; +++: active at 1-10 μM; ++: active at 50-100 μM; +: active at 100 μM; −: not active at 100 μM) | MMP inhibiting activity [1]: completely devoid of inhibitory activity

CCC(=O)P(=O)([O-])O.[Na+] [Compound 10]
Activity [1]: + (key: ++++: active at submicromolar concen-tration; +++: active at 1-10 μM; ++: active at 50-100 μM; +: active at 100 μM; −: not active at 100 μM)

COP(=O)([O-])C(=O)Cc1ccccc1.[Na+] [Compound 13]
Activity [1]: ++ (key: ++++: active at submicromolar concen-tration; +++: active at 1-10 μM; ++: active at 50-100 μM; +: active at 100 μM; −: not active at 100 μM)

CCC(=NO)P(=O)([O-])OC.[Li+] [Compound 14]
Activity [1]: + (key: ++++: active at submicromolar concen-tration; +++: active at 1-10 μM; ++: active at 50-100 μM; +: active at 100 μM; −: not active at 100 μM)

CNC(=O)[C@H](Cc1ccc(OC)cc1)NC(=O)[C@@H](CC(=O)NO)CC(C)C [SC-44463, reference compound]
% Inhibition of Metastasis Formation 50 mg/kg for 21 d [2]: 70-75%

O=C(NCCN1CCCCC1)P(=O)(O)O [Example 8, N-(2-[1-piperidino]ethyl)phosphonoformamide Betaine]
concentration at which active in the Boyden chamber chemoinvasion assay [1]: 100 µM

O=C(OCc1ccccc1)P(=O)([O-])O.[Na+] [Compound 5]
Activity [1]: ++ (key: ++++: active at submicromolar concen-tration; +++: active at 1-10 μM; ++: active at 50-100 μM; +: active at 100 μM; −: not active at 100 μM)

O=C(NC1CCCCC1)P(=O)(O)O [Compound 33]
Activity [1]: ++++ (key: ++++: active at submicromolar concen-tration; +++: active at 1-10 μM; ++: active at 50-100 μM; +: active at 100 μM; −: not active at 100 μM)

CCC(=O)P(=O)([O-])OC.[Na+] [Compound 11]
Activity [1]: + (key: ++++: active at submicromolar concen-tration; +++: active at 1-10 μM; ++: active at 50-100 μM; +: active at 100 μM; −: not active at 100 μM)

CC(=O)NCCNC(=O)P(=O)(O)O [Example 10, N-(2-acetamidoethyl)phosphonoformamide]
concentration at which active in the Boyden chamber chemoinvasion assay [1]: 100 µM

O=C(NC1CCCCC1)P(=O)(O)O [Example 5, Hydrogen Sodium N-cyclohexylcarbamoylphosphonate]
concentration at which active in the Boyden chamber chemoinvasion assay [1]: 1 µM | IC50 [3]: 80 nM

CNC(=O)[C@H](Cc1ccccc1)NC(=O)[C@H](CC(C)C)[C@H](CSc1cccs1)C(=O)NO [Batimastat, reference compound]
inhibition at 50 µM [1]: 40%

O=C(Cc1ccccc1)P(=O)([O-])O.[Na+] [Compound 12]
Activity [1]: + (key: ++++: active at submicromolar concen-tration; +++: active at 1-10 μM; ++: active at 50-100 μM; +: active at 100 μM; −: not active at 100 μM)

O=C(NC1CCCC1)P(=O)(O)O [Example 16, N-cyclopentylcarbamoylphosphonic Acid]
% Inhibition of Metastasis Formation 50 mg/kg for 21 d [2]: 70% | % Inhibition of Chemoinvasion 50 uM ([1]; 50 uM): 65% | % Inhibition of Capillary Formation 50 UM [4]: 70%

O=C(NCCc1ccccc1)P(=O)([O-])O.[Na+] [Compound 17]
Activity ([1]; preliminary screening, invasion/chemotaxis chambers vs untreated preparations): + (active at 100 μM)

CNC(=O)[C@H](Cc1ccccc1)NC(=O)[C@H](CC(C)C)NC(=O)P(=O)(O)O [Example 19, Phosphonoformyl-Leu-Phe-NHMe]
% Inhibition of Chemoinvasion 50 uM [1]: 55% | % Inhibition of Capillary Formation 50 UM [4]: 60%
